Reference: ChEMBL document CHEMBL1201862, “PubChem BioAssay data set” (2004)
Active and inactive are the calls of the source.

Key:
[1] = viability loss in LCL cells – cell-based, plate reader, dry powder, set 2, cytotoxicity control, dose response (AID 624367); assay type: functional
[2] = activation of miR-122 Renilla sensor silencing – cell-based, Huh7 psiCHECK-miR122, Renilla luciferase, cherry-picked, dose response (AID 651956); assay type: functional;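 also: huh7 hepatoma cells stably carrying a psiCHECK-2 miR-122 sensor plasmid; renilla luciferase signal reporting endogenous miR-122 activity after 48 h compound exposure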
[3] = general mammalian cell viability loss – inhibitor set, cherry-pick, set 2, cytotoxicity control for miR-122 modulator project, dose response (AID 720697); assay type: functional, cell-based
[4] = OVCAR8 cell viability loss – plate reader, dry powder samples, PAX8 project, dose response (AID 743197); assay type: functional, cell-based; conditions: OVCAR-8
[5] = A2780 cell killing – plate reader, dry powder samples, cytotoxicity control, dose response (AID 743046); assay type: functional, cell-based
[6] = target: T1, Low molecular weight phosphotyrosine protein phosphatase (Homo sapiens, UniProt P24666); assay type: functional; conditions: read-out: IC50_Mean
T1 sequence (P24666 whole entry): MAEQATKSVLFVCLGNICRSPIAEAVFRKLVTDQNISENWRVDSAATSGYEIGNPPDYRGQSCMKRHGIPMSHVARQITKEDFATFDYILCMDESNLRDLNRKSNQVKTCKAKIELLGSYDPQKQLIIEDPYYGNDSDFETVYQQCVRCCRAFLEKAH

[7] = target: T1, Low molecular weight phosphotyrosine protein phosphatase; assay type: functional; conditions: read-out: IC50_Mean; remark: listed apart in the source
[8] = target: Disintegrin and metalloproteinase domain-containing protein 17 (Homo sapiens, UniProt P78536); assay: exosite inhibitors of ADAM17, dose response, biochemical (AID 743260)
Disintegrin and metalloproteinase domain-containing protein 17, sequence (P78536 whole entry, the tested form may be a part): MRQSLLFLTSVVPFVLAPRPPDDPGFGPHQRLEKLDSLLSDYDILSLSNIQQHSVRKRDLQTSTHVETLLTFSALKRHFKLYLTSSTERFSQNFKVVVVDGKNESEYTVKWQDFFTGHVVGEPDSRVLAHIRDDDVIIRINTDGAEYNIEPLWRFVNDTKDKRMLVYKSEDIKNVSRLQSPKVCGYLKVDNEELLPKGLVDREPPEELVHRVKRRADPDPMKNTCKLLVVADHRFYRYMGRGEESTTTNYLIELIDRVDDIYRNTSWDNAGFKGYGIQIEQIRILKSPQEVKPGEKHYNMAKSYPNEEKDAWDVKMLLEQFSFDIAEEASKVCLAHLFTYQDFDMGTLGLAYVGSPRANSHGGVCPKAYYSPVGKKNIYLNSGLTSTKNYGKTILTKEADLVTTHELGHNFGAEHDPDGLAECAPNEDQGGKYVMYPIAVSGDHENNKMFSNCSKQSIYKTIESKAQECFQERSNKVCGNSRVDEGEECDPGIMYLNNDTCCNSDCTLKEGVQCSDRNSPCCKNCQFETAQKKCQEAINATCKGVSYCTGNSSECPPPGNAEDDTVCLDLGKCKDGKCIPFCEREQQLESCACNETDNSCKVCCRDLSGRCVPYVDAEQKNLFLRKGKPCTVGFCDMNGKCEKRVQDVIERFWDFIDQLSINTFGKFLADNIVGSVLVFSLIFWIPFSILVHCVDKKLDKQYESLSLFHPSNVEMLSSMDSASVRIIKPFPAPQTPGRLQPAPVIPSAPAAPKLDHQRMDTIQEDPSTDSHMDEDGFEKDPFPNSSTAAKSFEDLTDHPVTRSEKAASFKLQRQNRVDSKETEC

[9] = inhibition of ADAM10 peptide cleavage – biochemical, FRET peptide substrate, recombinant human ADAM10, selectivity assay for ADAM17 exosite inhibitor project, dose response (AID 743259);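 also: ADAM10 enzyme cleaving a FRET peptide substrate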
[10] = target: 5-hydroxytryptamine receptor 2A (Mus musculus, UniProt P35363); assay type: functional, cell-based;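 also: CHO-K1 cells with tagged receptor and beta-arrestin; agonist potency measured as compound-induced activation of the receptor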
5-hydroxytryptamine receptor 2A, sequence (P35363 whole entry): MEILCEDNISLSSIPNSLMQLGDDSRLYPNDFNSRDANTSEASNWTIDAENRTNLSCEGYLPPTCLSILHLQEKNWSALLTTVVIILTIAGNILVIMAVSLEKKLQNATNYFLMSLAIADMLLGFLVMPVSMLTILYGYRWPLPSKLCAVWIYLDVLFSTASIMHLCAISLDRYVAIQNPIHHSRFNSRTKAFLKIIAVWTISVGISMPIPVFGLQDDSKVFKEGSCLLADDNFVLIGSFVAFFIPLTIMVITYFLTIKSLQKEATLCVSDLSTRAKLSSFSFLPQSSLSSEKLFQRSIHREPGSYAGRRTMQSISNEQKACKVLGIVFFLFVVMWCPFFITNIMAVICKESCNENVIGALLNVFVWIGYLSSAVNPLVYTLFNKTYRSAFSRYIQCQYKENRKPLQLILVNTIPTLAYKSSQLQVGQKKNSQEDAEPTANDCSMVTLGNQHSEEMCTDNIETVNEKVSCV

Mu-type opioid receptor [11] = target: T2, Mu-type opioid receptor (Homo sapiens, UniProt P35372); assay type: functional, cell-based;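 as to EC50: U2OS cells with beta-arrestin recruitment to OPRM1 by beta-gal complementation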
T2 sequence (P35372 whole entry): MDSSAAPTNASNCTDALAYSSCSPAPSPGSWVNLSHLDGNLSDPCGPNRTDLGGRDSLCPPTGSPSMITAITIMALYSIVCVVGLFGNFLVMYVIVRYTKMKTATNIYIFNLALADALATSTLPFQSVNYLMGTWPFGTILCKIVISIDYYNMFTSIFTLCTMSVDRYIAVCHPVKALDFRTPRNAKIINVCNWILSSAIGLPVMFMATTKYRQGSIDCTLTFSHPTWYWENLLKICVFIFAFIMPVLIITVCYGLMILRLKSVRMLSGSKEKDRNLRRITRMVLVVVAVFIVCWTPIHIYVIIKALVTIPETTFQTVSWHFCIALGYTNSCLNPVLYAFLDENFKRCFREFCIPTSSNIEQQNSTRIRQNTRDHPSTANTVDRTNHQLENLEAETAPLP

Beta-lactamase [12] = target: T3, Beta-lactamase (Pseudomonas aeruginosa, UniProt Q79MP6); assay: inhibition of IMP-1 beta-lactamase activity – biochemical, epi-absorbance, selectivity assay for VIM-2 inhibitor project, dose response (AID 1920)
T3 sequence (Q79MP6 whole entry): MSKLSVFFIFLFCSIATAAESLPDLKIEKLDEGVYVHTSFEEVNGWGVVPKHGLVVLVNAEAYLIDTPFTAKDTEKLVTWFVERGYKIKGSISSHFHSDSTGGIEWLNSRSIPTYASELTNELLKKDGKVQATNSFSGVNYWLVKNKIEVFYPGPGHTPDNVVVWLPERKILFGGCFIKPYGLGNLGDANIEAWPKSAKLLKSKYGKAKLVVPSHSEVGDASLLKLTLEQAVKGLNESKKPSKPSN

Beta-lactamase [13] = target: T3, Beta-lactamase; assay: […] counterscreen for selective VIM-2 inhibitors: dose response biochemical high throughput screening assay to identify inhibitors of IMP-1 metallo-beta-lactamase.
Leucine aminopeptidase = target: T4, Leucine aminopeptidase (Plasmodium falciparum 3D7, UniProt Q8IL11); assay: P. falciparum M17LAP inhibitors, primary screen, biochemical, fluorogenic H-Leu-NHMec substrate, 1536-well (AID 1619); assay type: functional
T4 sequence (Q8IL11 whole entry): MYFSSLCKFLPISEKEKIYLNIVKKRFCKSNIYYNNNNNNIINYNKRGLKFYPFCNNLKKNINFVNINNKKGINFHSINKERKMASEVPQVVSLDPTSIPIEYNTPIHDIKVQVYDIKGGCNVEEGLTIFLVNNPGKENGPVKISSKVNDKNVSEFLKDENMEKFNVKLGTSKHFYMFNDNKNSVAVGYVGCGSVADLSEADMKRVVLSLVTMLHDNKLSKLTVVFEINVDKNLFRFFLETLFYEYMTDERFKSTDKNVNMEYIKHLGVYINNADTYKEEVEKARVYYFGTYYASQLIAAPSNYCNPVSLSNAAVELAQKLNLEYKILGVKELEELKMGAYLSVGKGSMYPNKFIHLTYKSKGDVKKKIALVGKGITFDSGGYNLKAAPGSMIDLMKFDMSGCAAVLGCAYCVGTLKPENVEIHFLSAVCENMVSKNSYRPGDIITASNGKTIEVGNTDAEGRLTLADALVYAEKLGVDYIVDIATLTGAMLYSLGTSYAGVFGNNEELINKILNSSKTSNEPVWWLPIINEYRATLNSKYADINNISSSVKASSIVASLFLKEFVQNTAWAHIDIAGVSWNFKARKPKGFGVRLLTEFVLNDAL

[14] = target: T5, Heat shock factor protein 1 (Mus musculus, UniProt P38532); assay: enhancement of HSF1-driven luciferase signal – cell-based, NIH3T3, luminescence, dose retest, confirmation (AID 435004); assay type: functional;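 also: stress induced by proteasome inhibitor MG132 added 30 min after compound; luciferase reporter driven by HSF1 response element in NIH3T3 cells; actives raise luminescence as potentiators of the MG132 stress response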
T5 sequence (P38532 whole entry): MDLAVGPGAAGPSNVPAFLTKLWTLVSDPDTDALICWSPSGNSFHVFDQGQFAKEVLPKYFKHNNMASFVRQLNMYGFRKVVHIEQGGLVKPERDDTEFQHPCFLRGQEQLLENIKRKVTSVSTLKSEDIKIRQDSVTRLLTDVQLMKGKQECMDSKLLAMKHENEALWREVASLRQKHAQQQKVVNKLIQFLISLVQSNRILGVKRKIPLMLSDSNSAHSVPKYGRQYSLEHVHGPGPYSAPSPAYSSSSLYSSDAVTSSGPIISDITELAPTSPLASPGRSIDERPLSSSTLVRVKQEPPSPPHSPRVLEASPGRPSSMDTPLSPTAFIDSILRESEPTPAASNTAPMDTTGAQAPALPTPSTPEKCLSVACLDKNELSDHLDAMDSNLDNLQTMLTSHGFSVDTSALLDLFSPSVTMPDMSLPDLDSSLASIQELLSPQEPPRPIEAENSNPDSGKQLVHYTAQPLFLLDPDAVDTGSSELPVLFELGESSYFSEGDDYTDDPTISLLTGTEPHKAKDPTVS

Beta-lactamase [15] = target: Beta-lactamase (Salmonella choleraesuis (strain SC-B67), UniProt Q5J463); assay: Epi-absorbance-based counterscreen for selective VIM-2 inhibitors: dose response biochemical high throughput screening assay to identify inhibitors of TEM-1 serine-beta-lactamase.
Beta-lactamase (Salmonella choleraesuis (strain SC-B67), UniProt Q5J463), sequence (Q5J463 whole entry): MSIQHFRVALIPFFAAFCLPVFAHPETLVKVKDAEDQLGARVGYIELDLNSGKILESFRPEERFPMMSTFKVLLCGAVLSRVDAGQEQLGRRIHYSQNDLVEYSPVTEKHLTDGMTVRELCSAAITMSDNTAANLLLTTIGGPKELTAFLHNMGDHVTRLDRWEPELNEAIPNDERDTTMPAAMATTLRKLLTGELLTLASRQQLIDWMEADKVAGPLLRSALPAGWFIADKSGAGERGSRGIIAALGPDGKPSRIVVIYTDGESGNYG

[16] = target: Sphingosine 1-phosphate receptor 1 (Homo sapiens, UniProt P21453); assay: Late-stage counterscreen for antagonists of kappa opioid receptor 1 (OPRK1): fluorescence-based cell-based dose response assay to identify antagonists of Sphingosine 1-Phosphate Receptor 1 (S1P1).; assay type: functional
Sphingosine 1-phosphate receptor 1, sequence (P21453 whole entry): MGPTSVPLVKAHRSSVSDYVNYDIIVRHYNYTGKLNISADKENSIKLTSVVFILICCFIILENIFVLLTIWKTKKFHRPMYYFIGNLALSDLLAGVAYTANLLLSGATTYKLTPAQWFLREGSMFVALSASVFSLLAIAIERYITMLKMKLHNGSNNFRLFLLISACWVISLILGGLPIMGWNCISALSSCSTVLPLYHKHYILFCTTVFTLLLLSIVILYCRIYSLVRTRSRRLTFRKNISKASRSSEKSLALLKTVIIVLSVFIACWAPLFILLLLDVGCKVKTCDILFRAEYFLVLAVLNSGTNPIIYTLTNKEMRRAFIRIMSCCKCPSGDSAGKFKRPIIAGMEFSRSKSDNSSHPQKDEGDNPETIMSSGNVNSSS

[17] = target: Delta-type opioid receptor (Homo sapiens, UniProt P41143); assay: Late-stage results from the probe development effort to identify antagonists of OPRK1: fluorescence-based cell-based dose response OPRD1 counterscreen, Set 2.; assay type: functional
Delta-type opioid receptor, sequence (P41143 whole entry): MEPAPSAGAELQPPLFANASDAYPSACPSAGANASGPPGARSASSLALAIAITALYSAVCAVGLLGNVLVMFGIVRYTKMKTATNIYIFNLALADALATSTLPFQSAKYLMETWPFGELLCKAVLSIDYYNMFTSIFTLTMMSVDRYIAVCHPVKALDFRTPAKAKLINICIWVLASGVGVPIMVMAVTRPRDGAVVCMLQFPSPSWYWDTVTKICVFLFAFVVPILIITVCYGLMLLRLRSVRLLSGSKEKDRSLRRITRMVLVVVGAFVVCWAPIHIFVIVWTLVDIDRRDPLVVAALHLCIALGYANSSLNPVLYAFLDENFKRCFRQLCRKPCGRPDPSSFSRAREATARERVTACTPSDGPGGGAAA

[18] = target: Kappa-type opioid receptor (Homo sapiens, UniProt P41145); assay: Late-stage fluorescence-based cell-based dose response assay for antagonists of kappa opioid receptor 1 (OPRK1).; assay type: functional
Kappa-type opioid receptor, sequence (P41145 whole entry): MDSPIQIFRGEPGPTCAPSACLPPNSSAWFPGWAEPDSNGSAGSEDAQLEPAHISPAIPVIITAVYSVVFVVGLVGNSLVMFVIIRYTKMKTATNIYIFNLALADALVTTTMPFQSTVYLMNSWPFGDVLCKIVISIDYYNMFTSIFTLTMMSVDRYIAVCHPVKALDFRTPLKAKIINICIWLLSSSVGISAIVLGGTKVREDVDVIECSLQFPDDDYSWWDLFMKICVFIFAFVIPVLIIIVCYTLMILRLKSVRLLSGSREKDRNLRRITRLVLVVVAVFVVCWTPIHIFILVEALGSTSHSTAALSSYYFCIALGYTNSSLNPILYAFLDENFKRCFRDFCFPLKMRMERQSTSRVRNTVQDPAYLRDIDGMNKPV

Mu-type opioid receptor [19] = target: T2, Mu-type opioid receptor; assay: Late-stage results from the probe development effort to identify antagonists of OPRK1: luminescence-based cell-based dose response OPRM1 counterscreen, Set 2.; assay type: functional

With C[C@H](CO)N1C[C@H](C)[C@H](CN(C)C(=O)NC2CCCCC2)Oc2cc(/C=C/c3ccccc3)ccc2S1(=O)=O the AbsAC35 [1] was 53.47 µM, the AC50 [2] was 19.1 µM (active) and the AC50 [3] was 15.9 µM (active).

With COc1ccc(-c2cn(CC[C@H]3CC[C@@H](NC(=O)Cc4ccccn4)[C@@H](CO)O3)nn2)cc1 the AC50 [4] was > 70 µM (inactive) and the AC50 [5] was 0.315 µM (active).

With COCCNc1nc(NCc2cccc(OC)c2OC)c2sccc2n1 the IC50 [6] was 8.2 µM (active) and the IC50 [7] was 12.8 µM (active).

For COC(=O)C1=C(c2cccc(OCc3ccccc3)c2)C[C@@H]2CC[C@H]1N2C(=O)NCCOc1ccc(OC)cc1, the IC50 [8] was > 69.5 µM (inactive) and the IC50 [9] was 12.1 µM (inactive).

With O=C(C[n+]1cc(-c2ccccc2)n2c1CCC2)Nc1nc(-c2ccc(F)cc2)cs1 the EC50 [10] was 76.1 µM (inactive) and the EC50 (Mu-type opioid receptor [11]) was 92.5 µM (inactive).

In the case of CC(C)(C)c1ccc(COc2ccsc2C(=O)O)cc1, the IC50 (Beta-lactamase [12]) is reported as > 59.6 µM (inactive), the IC50 (Beta-lactamase [13]) is reported as > 59.6 µM (inactive) and the IC50 (Leucine aminopeptidase) is reported as 11.5 µM (active). For the same compound, the EC50 [14] was 137 µM (active) and the IC50 (Beta-lactamase [15]) was > 59.6 µM (inactive).

With CCOC(=O)c1ccc(N2CC3CCCCN3C2c2cccc(OC)c2O)cc1 (stereo not given) the IC50 [16] was > 50 µM (inactive), the IC50 [17] was > 50 µM (inactive) and the IC50 [18] was 6.85 µM (active). For the same compound, the IC50 (Mu-type opioid receptor [19]) was > 50 µM (inactive).
